Laboratory results from patent US12589104B2, “Thiosaccharides for use in treating coronavirus infection” (priority 2020, dated 2026).
Where a name gives a salt, the structure may show the parent alone.

Key:
[1] = system: SARS CoV2 (isolate USA-WA1/2020); set-up: species or system Syrian hamsters (Mesocricetus auratus); settings: hamster, in vivo
[2] = cited from earlier work
[3] = system: SARS-CoV-2, isolate USA-WA1/2020; assay type: cell-based
[4] = target: T1, SARS-CoV-2 RBD^original binding to ACE2 (Severe acute respiratory syndrome coronavirus 2, UniProt P0DTC2); settings: for binding of RBD^original to ACE2 at one and two hours post exposure and wash: 5 mM drug for 1 hour, washed, ACE2 added after 60 or 120 minutes; for inhibition of binding of RBD^original to ACE2: RBD exposed to drug for 60 minutes, 0 to 20 mM
T1 construct: ACRO Biosystems); purchased ACRO Biosystems

[5] = system: SARS-2-S pseudovirus; assay type: cell-based, SARS-CoV-2
[6] = system: VSV pseudotype bearing the SARS-2-S protein (VSV-S); assay type: cell-based, SARS-CoV-2
[7] = target: T2, RBD of SARS-2-S binding to ACE2 (Severe acute respiratory syndrome coronavirus 2, UniProt P0DTC2); set-up: species or system SARS-CoV-2
T2 construct: Recombinantly expressed RBD of SARS-2-S was first immobilized to a surface

[8] = assay type: physicochemical; settings: 11 mg/mL in vehicle, Aerogen Solo vibrating mesh nebulizer

NCCS [Cysteamine]
interleukin-6 levels in lung lavage [1]: lower than control | lung weights [1]: lower than in control groups | lymphocytes in BAL fluid [1]: decreases | neutrophils in BAL fluid [1]: decreases | total leukocyte counts in the bronchoalveolar lavage (BAL) fluid [1]: lower than control | pKa (thiol group) [2]: 8.2 | cytopathic effects in virus-infected cells, virus exposed to drug prior to infection [3]: significantly inhibited | binding of RBD^original to ACE2 at one and two hours post exposure and wash [4]: binding inhibition was retained for two hours after drug removal | inhibition of binding of RBD^original to ACE2 [4]: strong inhibitory effects

O=S(=O)(O)CCS [MESNA, 2-Mercaptoethane sulfonate, sodium salt]
antiviral efficacy in vitro compared to NAC [5]: superior antiviral efficacy in vitro | binding of RBD^original to ACE2 at one and two hours post exposure and wash [4]: binding inhibition was retained for two hours after drug removal | inhibition of binding of RBD^original to ACE2 [4]: strong inhibitory effects

OC1C(O)[C@H](O)C(CS)O[C@@H]1O[C@H]1OC(CS)[C@@H](O)C(O)C1O (stereo partly drawn) [MUC, 6,6′-dithiotrehalose]
effectiveness for inhibiting viral entry compared to NAC [6]: more effective than NAC | inhibition of VSV-S cellular entry [6]: inhibited VSV-S cellular entry | inhibition of VSV-S entry [6]: All three concentrations of MUC resulted in potent inhibition of VSV-S entry | inhibition of binding of ACE2 to SARS-2-S [7]: inhibited binding of ACE2 to SARS-2-S | persistence of binding inhibition after drug is washed out [7]: binding inhibition persists following drug contact | potency in inhibiting ACE2 binding compared to NAC [7]: stronger potency

OC1C(O)[C@H](O)C(CS)O[C@@H]1O[C@@H]1OC(CS)[C@@H](O)C(O)C1O (stereo partly drawn) [MUC-031, 6,6′-dithiotrehalose]
average mass median aerodynamic diameter (MMAD) of the exposure atmosphere [8]: 2.60 μm

CC(=O)N[C@@H](CS)C(=O)O [NAC, N-acetyl-L-cysteine]
inhibition of VSV-S cellular entry [6]: inhibited VSV-S cellular entry | inhibition of VSV-S entry [6]: only 5 and 25 mM of NAC resulted in significant cell entry inhibition | inhibition of binding of ACE2 to SARS-2-S [7]: inhibited binding of ACE2 to SARS-2-S

NCCCNCCS [WR-1065]
binding of RBD^original to ACE2 at one and two hours post exposure and wash [4]: binding inhibition was retained for two hours after drug removal | inhibition of binding of RBD^original to ACE2 [4]: strong inhibitory effects

NCCCNCCSP(=O)(O)O [amifostine, Amifostine]
pseudovirus cell entry after pretreatment of SARS-2-S pseudovirus with drug [5]: did not inhibit viral cell entry

N[C@@H](CSCC(=O)O)C(=O)O [carbocysteine, Carbocysteine]
pseudovirus cell entry after pretreatment of SARS-2-S pseudovirus with drug [5]: did not inhibit viral cell entry | cytopathic effects in virus-infected cells, virus exposed to drug prior to infection [3]: significantly inhibited
